Test results: PMC6925343 (ACS chemical biology, 2019)

Experiments:
[1] = tested on: RANBP3 Ser58/Ser126 phosphorylation; test: RANBP3 Ser58/Ser126 phosphorylation in CSA treated HeLa cells, Western blot; type: cell-based; conditions: CSA 45 min, anti-pSer58/pSer126-RANBP3 antibody
[2] = tested on: SMAD2 localization in HeLa cells; conditions: CSA 45 min, n = 90 cells, three independent replicates

Cyclosporine A [CSA]
increase of Ser58/Ser126 phosphorylation of RANBP3 [1]: approximately 2 fold
total SMAD2 levels [2]: not changed
